system: human malignant melanoma cells (A375); assay: Anti-proliferative activity, CCK-8 assay, A375; type: cell-based; settings: A-375, 72 h incubation
Method: (§1) Experimental procedure: Sample solutions with a concentration of 20 μM were prepared and serially diluted 5-fold downwards to obtain 10 concentrations: 20000 nM, 4000 nM, 800 nM, 160 nM, 32 nM, 6.4 nM, 1.28 nM, 0.256 nM, 0.0512 nM and 0.01024 nM. The sample solutions were incubated with the above cell lines for 72 h. Then 10 μL of a CCK-8 solution was then added to each well, followed by a further 2 hours incubation. An optical density (OD) value was measured at 450 nm using a fully automated microplate reader. Data were processed using GraphPad Prism 7 to calculate IC50.

IC50	SMILES
2.8 nM	CC(=S)Nc1ccc(F)c(-n2c(=O)n(C3CC3)c(=O)c3c(Nc4ccc(I)cc4F)n(C)c(=O)c(C)c32)c1 [Compound 9]
1.8 nM	CC(=S)Nc1cc(F)cc(-n2c(=O)n(C3CC3)c(=O)c3c(Nc4ccc(I)cc4F)n(C)c(=O)c(C)c32)c1 [Compound 10]

SMILES	IC50
Cc1c(=O)n(C)c(Nc2ccc(I)cc2F)c2c(=O)n(C3CC3)c(=O)n(-c3cccc(NC(=S)CO)c3)c12 [Compound 8]	4.7 nM

system: human colon cancer cells (HCT-15); assay: Anti-proliferative activity, CCK-8 assay, HCT-15; type: cell-based; settings: 72 h incubation
Method: as §1

IC50	SMILES
21.6 nM	CC(=S)Nc1ccc(F)c(-n2c(=O)n(C3CC3)c(=O)c3c(Nc4ccc(I)cc4F)n(C)c(=O)c(C)c32)c1 [Compound 9]
14.9 nM	CC(=S)Nc1cc(F)cc(-n2c(=O)n(C3CC3)c(=O)c3c(Nc4ccc(I)cc4F)n(C)c(=O)c(C)c32)c1 [Compound 10]

SMILES	IC50
Cc1c(=O)n(C)c(Nc2ccc(I)cc2F)c2c(=O)n(C3CC3)c(=O)n(-c3cccc(NC(=S)CO)c3)c12 [Compound 8]	25.8 nM

biological target: MEK1 (Homo sapiens, UniProt Q02750); assay: Raf-MEK-ERK cascade kinase assay using recombinant protein (MEK1); type: biochemical; settings: 10 μM ATP, active B-Raf (V599E), 30° C. 30 minutes
Sequence (Q02750 whole entry): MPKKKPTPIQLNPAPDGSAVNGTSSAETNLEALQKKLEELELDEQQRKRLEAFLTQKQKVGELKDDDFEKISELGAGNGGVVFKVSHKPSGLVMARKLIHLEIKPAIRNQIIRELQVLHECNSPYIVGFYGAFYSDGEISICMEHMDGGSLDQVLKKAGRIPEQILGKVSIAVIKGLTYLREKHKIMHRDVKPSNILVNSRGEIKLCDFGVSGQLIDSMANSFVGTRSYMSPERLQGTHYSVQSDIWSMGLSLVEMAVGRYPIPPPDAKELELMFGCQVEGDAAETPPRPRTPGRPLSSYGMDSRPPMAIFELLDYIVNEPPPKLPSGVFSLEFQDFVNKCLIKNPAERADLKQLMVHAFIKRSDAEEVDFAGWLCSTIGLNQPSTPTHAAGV
Method: (§2) Experimental purpose: The inhibitory activity of the compounds on MEK1 and MEK2 was measured by performing a Raf-MEK-ERK cascade kinase assay using recombinant protein.
(§3) Experimental method: 2 mg of dephosphorylated myelin basic protein (MBP) was dispersed in a 0.2 M sodium carbonate aqueous solution (pH=9.4). The mixed solution was then coated onto an enzyme-linked immunosorbent assay (ELISA) plate (U-shaped bottom plate) and left to stand overnight at 4° C. […] Compound solutions with serial concentrations were tested in triplicate wells. A mixture of 2 ng of inactivated MEK1 (or 4 ng of MEK2) and 50 ng of inactivated ERK2 was dissolved in a buffer solution (20 mM MOPS [pH=7.4], 0.1% 2-mercaptoethanol, 0.1% BSA) at room temperature, and then treated with the above serial solutions on a flat plate. The plate was covered with 1% bovine serum albumin (BSA) and pre-incubated for 10 minutes. […] After incubation at 30° C. for 30 minutes, phosphorylation of MBP by ERK was detected using peroxidase-labeled anti-phosphorylated MBP antibodies. Data curves were plotted and half maximal inhibitory concentration (IC50) values were calculated using XLFit.

IC50	SMILES
2.29 nM	CC(=S)Nc1ccc(F)c(-n2c(=O)n(C3CC3)c(=O)c3c(Nc4ccc(I)cc4F)n(C)c(=O)c(C)c32)c1 [Compound 9]
2.01 nM	CC(=S)Nc1cc(F)cc(-n2c(=O)n(C3CC3)c(=O)c3c(Nc4ccc(I)cc4F)n(C)c(=O)c(C)c32)c1 [Compound 10]

SMILES	IC50
Cc1c(=O)n(C)c(Nc2ccc(I)cc2F)c2c(=O)n(C3CC3)c(=O)n(-c3cccc(NC(=S)CO)c3)c12 [Compound 8]	1.57 nM

system: human prostate cancer cells (PC-3); assay: Anti-proliferative activity, CCK-8 assay, PC-3; type: cell-based; settings: 72 h incubation
Method: as §1

IC50	SMILES
1.9 nM	CC(=S)Nc1ccc(F)c(-n2c(=O)n(C3CC3)c(=O)c3c(Nc4ccc(I)cc4F)n(C)c(=O)c(C)c32)c1 [Compound 9]
2.3 nM	CC(=S)Nc1cc(F)cc(-n2c(=O)n(C3CC3)c(=O)c3c(Nc4ccc(I)cc4F)n(C)c(=O)c(C)c32)c1 [Compound 10]

SMILES	IC50
Cc1c(=O)n(C)c(Nc2ccc(I)cc2F)c2c(=O)n(C3CC3)c(=O)n(-c3cccc(NC(=S)CO)c3)c12 [Compound 8]	2.4 nM

biological target: MEK2 (Homo sapiens, UniProt P36507); assay: Raf-MEK-ERK cascade kinase assay using recombinant protein (MEK2); type: biochemical; settings: 10 μM ATP, active B-Raf (V599E), 30° C. 30 minutes
Sequence (P36507 whole entry): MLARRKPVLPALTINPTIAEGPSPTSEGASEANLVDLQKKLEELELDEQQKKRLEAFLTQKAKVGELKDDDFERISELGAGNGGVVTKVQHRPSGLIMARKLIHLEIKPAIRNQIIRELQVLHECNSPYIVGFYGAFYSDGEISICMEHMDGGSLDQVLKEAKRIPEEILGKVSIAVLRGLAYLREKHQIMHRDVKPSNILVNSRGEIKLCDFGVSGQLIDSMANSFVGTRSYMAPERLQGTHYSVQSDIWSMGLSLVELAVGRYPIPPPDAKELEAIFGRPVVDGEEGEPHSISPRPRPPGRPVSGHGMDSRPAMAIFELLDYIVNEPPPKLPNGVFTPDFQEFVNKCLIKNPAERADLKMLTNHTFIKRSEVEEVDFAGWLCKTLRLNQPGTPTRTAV
Method: as §2, §3

IC50	SMILES
2.26 nM	CC(=S)Nc1ccc(F)c(-n2c(=O)n(C3CC3)c(=O)c3c(Nc4ccc(I)cc4F)n(C)c(=O)c(C)c32)c1 [Compound 9]
2.07 nM	CC(=S)Nc1cc(F)cc(-n2c(=O)n(C3CC3)c(=O)c3c(Nc4ccc(I)cc4F)n(C)c(=O)c(C)c32)c1 [Compound 10]

SMILES	IC50
Cc1c(=O)n(C)c(Nc2ccc(I)cc2F)c2c(=O)n(C3CC3)c(=O)n(-c3cccc(NC(=S)CO)c3)c12 [Compound 8]	2.08 nM

system: human non-small cell lung cancer cells (A549); assay: Anti-proliferative activity, CCK-8 assay, A549; type: cell-based; settings: 72 h incubation
Method: as §1

IC50	SMILES
4.4 nM	CC(=S)Nc1ccc(F)c(-n2c(=O)n(C3CC3)c(=O)c3c(Nc4ccc(I)cc4F)n(C)c(=O)c(C)c32)c1 [Compound 9]
8.5 nM	CC(=S)Nc1cc(F)cc(-n2c(=O)n(C3CC3)c(=O)c3c(Nc4ccc(I)cc4F)n(C)c(=O)c(C)c32)c1 [Compound 10]

SMILES	IC50
Cc1c(=O)n(C)c(Nc2ccc(I)cc2F)c2c(=O)n(C3CC3)c(=O)n(-c3cccc(NC(=S)CO)c3)c12 [Compound 8]	5.8 nM

system: human colon cancer cells (HCT116); assay: Anti-proliferative activity, CCK-8 assay, HCT116; type: cell-based; settings: HCT-116, 72 h incubation
Method: as §1

IC50	SMILES
5.2 nM	CC(=S)Nc1ccc(F)c(-n2c(=O)n(C3CC3)c(=O)c3c(Nc4ccc(I)cc4F)n(C)c(=O)c(C)c32)c1 [Compound 9]
6.4 nM	CC(=S)Nc1cc(F)cc(-n2c(=O)n(C3CC3)c(=O)c3c(Nc4ccc(I)cc4F)n(C)c(=O)c(C)c32)c1 [Compound 10]

SMILES	IC50
Cc1c(=O)n(C)c(Nc2ccc(I)cc2F)c2c(=O)n(C3CC3)c(=O)n(-c3cccc(NC(=S)CO)c3)c12 [Compound 8]	4.2 nM

system: not listed separately; assay: Body weight change of experimental mice in the xenograft study; settings: 3 mg/kg gavage, 30 days
Description: Experimental procedure: The study evaluated the inhibitory effect of compounds administered by gavage against human HCT116 subcutaneous xenograft tumors in the BALB/c nude mouse model by measuring tumor size and calculating tumor volume (TV), relative tumor volume (RTV), relative tumor proliferation rate (T/C), and anti-tumor efficacy (TGI).

SMILES	Weight loss at the end of the experiment / toxicity (FIG. 1)
Cc1c(=O)n(C)c(Nc2ccc(I)cc2F)c2c(=O)n(C3CC3)c(=O)n(-c3cccc(NC(=S)CO)c3)c12 [Compound 8]	toxicity of Trametinib was higher than that of compounds 2, 8 and 12

system: human HCT116 subcutaneous xenograft tumors; assay: In vivo anti-tumor assay, subcutaneous xenograft model; design: species or system BALB/c nude mouse; settings: 3 mg/kg P.O. QD × 30 days
Method: Experimental purpose: To evaluate the in vivo efficacy of the compounds in a subcutaneous xenograft model of human cancer cells in a Bagg's albino (BALB/c) nude mouse.
The tumor suppressive efficacy of the compounds was quantified by TGI (%) or relative tumor proliferation rate T/C (%). TGI (%) reflected the tumor growth inhibition rate. TGI(%) was calculated using the following equation: TGI(%)=[1−(mean tumor volume at the end of treatment in a treatment group-mean tumor volume at the start of treatment in the treatment group)/(mean tumor volume at the end of treatment in the solvent control group-mean tumor volume at the start of treatment in the solvent control group)]×100%.
T/C(%) was calculated using the following equation: T/C (%)=TRTV/CRTV×100%, where TRTV was an RTV of the treatment group, and CRTV was an RTV of the negative control group. The RTV was calculated from the results of tumor size measurements according to the following equation: RTV=Vt/V0, where V0 was a mean tumor volume measured on the day of first administration (i.e., day 0), Vt was a mean tumor volume measured on the day indicated, and TRTV and CRTV were obtained from data on the same day.

SMILES	T/C (relative tumor proliferation rate)	TGI (tumor growth inhibition rate)
Cc1c(=O)n(C)c(Nc2ccc(I)cc2F)c2c(=O)n(C3CC3)c(=O)n(-c3cccc(NC(=S)CO)c3)c12 [Compound 8]	8.17%	100.32%

same assay, conditions: 3 mg/kg P.O. QD × 30 days, Day 30

SMILES	Tumor volume (Day 30)
Cc1c(=O)n(C)c(Nc2ccc(I)cc2F)c2c(=O)n(C3CC3)c(=O)n(-c3cccc(NC(=S)CO)c3)c12 [Compound 8]	140 ± 26 mm^3

same assay, conditions: 3 mg/kg P.O. QD × 30 days, compared to the Trametinib group

SMILES	Tumor growth inhibition, tumor volume change (FIG. 2)
Cc1c(=O)n(C)c(Nc2ccc(I)cc2F)c2c(=O)n(C3CC3)c(=O)n(-c3cccc(NC(=S)CO)c3)c12 [Compound 8]	better inhibitory effects

From patent US12168659B2, “Thioamide derivative and preparation method and application thereof” (Yunbaiyao Zhengwu Science and Technology (Shanghai) Co., …, priority 2022, dated 2024)
